Source: patent US20040014047A1, “Antisense modulation of LIM domain kinase 1 expression” (Isis Pharmaceuticals Inc., priority 2002, published 2004)
Strand notation (5' to 3'): a small letter for the sugar, then the base; units joined by * are phosphorothioate-linked, units joined directly phosphodiester-linked; [ ] holds rarer units or linkages, { } end groups; capitals alone tell only the bases. e = 2'-O-(2-methoxyethyl) (MOE); [5mC] = 5-methylcytosine; d = 2'-deoxy (DNA)

test system: human LIM domain kinase 1 mRNA; experiment: Antisense inhibition of human LIM domain kinase 1 mRNA levels, quantitative real-time PCR, A549 cells (screen); type: cell-based; conditions: quantitative real-time PCR, averages from two experiments, screening concentration not given (50 nM to 300 nM used herein)
Description: When cells reached 70% confluency, they were treated with oligonucleotide. […] Cells were harvested 16-24 hours after oligonucleotide treatment.
Vacuum was applied for 1 minute.
PCR reagents were obtained from Invitrogen Corporation, (Carlsbad, Calif.).
Total RNA is quantified using RiboGreenTM RNA quantification reagent from Molecular Probes.
Probes and primers to human LIM domain kinase 1 were designed to hybridize to a human LIM domain kinase 1 sequence, using published sequence information (GenBank accession number D26309.1, incorporated herein as SEQ ID NO:4). For human LIM domain kinase 1 the PCR primers were: forward primer: […] (SEQ ID NO: 5) reverse primer: […] (SEQ ID NO: 6) and the PCR probe was: FAM-[…]-TAMRA (SEQ ID NO: 7) where FAM is the fluorescent dye and TAMRA is the quencher dye.
All cytidine residues are 5-methylcytidines. […] Data are averages from two experiments in which A549 cells were treated with the oligonucleotides of the present invention. […] If present, “N.D.” indicates “no data”.

Substance | % INHIB (inhibition of human LIM domain kinase 1 mRNA levels)
206178 (antisense eA*eG*eT*eA*e[5mC]*dA*dG*d[5mC]*dT*dT*dG*dG*dA*dG*dT*eG*e[5mC]*eT*e[5mC]*e[5mC]) [compound 206178] | 69%
206179 (antisense eG*e[5mC]*eA*eG*eT*dG*d[5mC]*d[5mC]*d[5mC]*dG*d[5mC]*dA*dG*dT*dA*e[5mC]*eA*eG*e[5mC]*eT) [compound 206179] | 75%
206180 (antisense eA*e[5mC]*eA*eT*e[5mC]*dT*dG*dG*dG*d[5mC]*dT*d[5mC]*dA*dT*dG*e[5mC]*eA*eG*e[5mC]*e[5mC]) [compound 206180] | 77%
206181 (antisense eT*e[5mC]*eT*eT*e[5mC]*dA*d[5mC]*dA*dT*d[5mC]*dT*dG*dG*dG*d[5mC]*eT*e[5mC]*eA*eT*eG) [compound 206181] | 54%
206182 (antisense eG*eG*eA*eA*eT*dT*d[5mC]*dT*dT*d[5mC]*dA*d[5mC]*dA*dT*d[5mC]*eT*eG*eG*eG*e[5mC]) [compound 206182] | 86%
206183 (antisense eT*eG*eG*eA*eT*dG*dG*dA*dA*dT*dT*d[5mC]*dT*dT*d[5mC]*eA*e[5mC]*eA*eT*e[5mC]) [compound 206183] | 79%
206184 (antisense eA*eT*eT*eT*e[5mC]*d[5mC]*dA*dA*dG*dA*dT*d[5mC]*d[5mC]*dG*dG*eT*e[5mC]*eT*e[5mC]*e[5mC]) [compound 206184] | 74%
206185 (antisense eG*e[5mC]*e[5mC]*eA*eT*dT*dG*dA*dT*dT*dT*d[5mC]*d[5mC]*dA*dA*eG*eA*eT*e[5mC]*e[5mC]) [compound 206185] | 86%
206186 (antisense eG*eG*e[5mC]*eG*eT*dG*d[5mC]*d[5mC]*dA*dT*dT*dG*dA*dT*dT*eT*e[5mC]*e[5mC]*eA*eA) [compound 206186] | 72%
206187 (antisense eT*e[5mC]*eA*eG*e[5mC]*dT*dG*dG*dA*dG*d[5mC]*dA*dG*dG*d[5mC]*eG*eG*e[5mC]*eT*eG) [compound 206187] | 60%
206188 (antisense eT*e[5mC]*eG*eA*eG*dG*dG*dT*d[5mC]*dA*dG*d[5mC]*dT*dG*dG*eA*eG*e[5mC]*eA*eG) [compound 206188] | 71%
206189 (antisense eG*eT*eT*eT*e[5mC]*dT*dG*d[5mC]*d[5mC]*dG*dG*dG*d[5mC]*dA*dG*eA*eG*e[5mC]*eT*eG) [compound 206189] | 81%
206190 (antisense eG*eA*e[5mC]*eA*eG*dG*dT*dT*dT*d[5mC]*dT*dG*d[5mC]*d[5mC]*dG*eG*eG*e[5mC]*eA*eG) [compound 206190] | 88%
206191 (antisense e[5mC]*eT*e[5mC]*eA*eA*dG*dA*d[5mC]*dA*dG*dG*dT*dT*dT*d[5mC]*eT*eG*e[5mC]*e[5mC]*eG) [compound 206191] | 62%
206192 (antisense eA*eG*e[5mC]*eT*e[5mC]*d[5mC]*dT*d[5mC]*dA*dA*dG*dA*d[5mC]*dA*dG*eG*eT*eT*eT*e[5mC]) [compound 206192] | 54%
206193 (antisense eA*eG*eG*eT*e[5mC]*d[5mC]*dT*dT*dG*d[5mC]*dG*d[5mC]*dT*dG*dG*eG*eA*eG*eG*e[5mC]) [compound 206193] | 67%

Substance | % INHIB (inhibition of human LIM domain kinase 1 mRNA levels)
206194 (antisense eG*eA*e[5mC]*e[5mC]*e[5mC]*dA*dG*dG*dT*d[5mC]*d[5mC]*dT*dT*dG*d[5mC]*eG*e[5mC]*eT*eG*eG) [compound 206194] | 41%
206195 (antisense eT*e[5mC]*eA*e[5mC]*eG*dG*dT*dG*dT*dG*dT*d[5mC]*dA*d[5mC]*d[5mC]*eT*eT*eG*eA*eT) [compound 206195] | 73%
206196 (antisense eA*e[5mC]*e[5mC]*eT*eT*d[5mC]*dA*d[5mC]*d[5mC]*dT*d[5mC]*d[5mC]*dT*dT*dG*eA*eG*eG*eA*eA) [compound 206196] | 47%
206197 (antisense eG*e[5mC]*eA*eT*e[5mC]*dG*d[5mC]*dA*dT*dG*dA*d[5mC]*d[5mC]*dT*dT*e[5mC]*eA*e[5mC]*e[5mC]*eT) [compound 206197] | 71%
206198 (antisense eT*e[5mC]*e[5mC]*eA*eG*dG*d[5mC]*dA*dT*d[5mC]*dG*d[5mC]*dA*dT*dG*eA*e[5mC]*e[5mC]*eT*eT) [compound 206198] | 86%
206199 (antisense eT*eG*eT*e[5mC]*e[5mC]*dA*dT*dG*d[5mC]*dT*d[5mC]*dT*dT*dG*dA*eT*eG*eA*eT*eG) [compound 206199] | 68%
206200 (antisense e[5mC]*eT*eG*eG*e[5mC]*dT*dG*dT*d[5mC]*d[5mC]*dA*dT*dG*d[5mC]*dT*e[5mC]*eT*eT*eG*eA) [compound 206200] | 76%
206201 (antisense eA*eG*eG*eT*eA*dG*dG*d[5mC]*d[5mC]*dA*dT*d[5mC]*d[5mC]*d[5mC]*dT*eG*eA*eT*eG*e[5mC]) [compound 206201] | 74%
206202 (antisense eG*eT*e[5mC]*eT*e[5mC]*dG*dG*dT*dG*dG*dA*dT*dG*dA*dT*eG*eT*eT*e[5mC]*eA) [compound 206202] | 69%
206203 (antisense eT*eT*eG*eT*eG*dG*dG*dA*dG*dT*dT*dG*dA*dG*dG*eT*e[5mC]*eT*e[5mC]*eG) [compound 206203] | 55%
206204 (antisense e[5mC]*eA*eT*eT*e[5mC]*dT*dT*dG*dT*dT*d[5mC]*dT*d[5mC]*dG*d[5mC]*eG*eG*eA*e[5mC]*e[5mC]) [compound 206204] | 81%
206205 (antisense eA*eA*eA*eG*eG*dA*dT*dG*dG*d[5mC]*d[5mC]*dT*d[5mC]*dT*dT*e[5mC]*eT*e[5mC]*eG*eG) [compound 206205] | 74%
206206 (antisense e[5mC]*eG*e[5mC]*e[5mC]*eG*dG*dT*dA*dG*dG*dT*d[5mC]*dT*d[5mC]*d[5mC]*e[5mC]*eA*eG*eA*eA) [compound 206206] | 28%
206207 (antisense eG*eT*eG*eG*e[5mC]*d[5mC]*d[5mC]*dT*dG*dG*d[5mC]*dT*d[5mC]*dA*dG*eT*e[5mC]*eG*eG*eG) [compound 206207] | 80%
206208 (antisense e[5mC]*e[5mC]*eA*e[5mC]*e[5mC]*dT*d[5mC]*d[5mC]*d[5mC]*dG*d[5mC]*dG*dG*dA*dG*eG*eA*eA*eT*e[5mC]) [compound 206208] | 79%
206209 (antisense e[5mC]*eT*e[5mC]*eT*eG*dG*dG*d[5mC]*d[5mC]*dA*d[5mC]*dG*dG*d[5mC]*dA*eG*eA*eG*eA*eG) [compound 206209] | 80%
